These results are taken from publication PMC9101188, “Human α-Defensin-6 Neutralizes Clostridioides difficile Toxins TcdA and TcdB by Direct Binding” (International Journal of Molecular Sciences, 2022).

The subject of data set [1] is Rac1. The format is cell-based, African green monkey.
The subject of a further data set is Vero cells. The data set is described as follows: Aggregation of TcdB-DL488 and cell morphology in Vero cells. The class given is cell-based, African green monkey. As to conditions: TcdB-DL488 22 nM + α-def-6 6 µM, 0.5 h, 37 °C (n = 2). Here is the method: Cells were fixed and permeabilized. […] Scale bars correspond to 50 µm. […] TcdB was detected.
Cells were grown in their respective media under humidified conditions at 37 °C and 5% CO2. Vero cells (African green monkey kidney cells; DSMZ, Braunschweig, Germany) were maintained in Gibco minimum essential medium (MEM; Thermo Fisher Scientific, Waltham, MA, USA) supplemented with 10% fetal calf serum (FCS; Thermo Fisher Scientific, Waltham, MA, USA), 1 mM sodium pyruvate (Thermo Fisher Scientific, Waltham, MA, USA), 2 mM L-glutamine (PAN-Biotech, Aidenbach, Germany), 0.1 mM non-essential amino acids (Thermo Fisher Scientific, Waltham, MA, USA) and 100 U/mL penicillin and 100 µg/mL streptomycin (both Thermo Fisher Scientific, Waltham, MA, USA). CaCo-2 cells (human epithelial colorectal adenocarcinoma cells, HTB-37; ATCC, Manassas, VA, USA) were cultured in Gibco Dulbecco’s Modified Eagle Medium (DMEM; Thermo Fisher Scientific, Waltham, MA, USA) plus 10% FCS, 1 mM sodium pyruvate, 0.1 mM non-essential amino acids and 100 U/mL penicillin and 100 µg/mL streptomycin.
Simultaneously the same volume of PBS was exposed to DyLight^TM 488 NHS-Ester to serve as a negative control in experiments. To remove free fluorescence dye, the samples were rebuffered by passing through Zeba^TM Spin Desalting Columns via centrifugation. […]

Data set [2] relates to CaCo-2 cells.
In the next data set the test system is TcdB glucosyltransferase. The data set is described as follows: UDP-Glo glucosyltransferase assay. The format is biochemical, C. difficile VPI 10463. As to conditions: TcdB 200 pM, recombinant Rac1 5 µM, UDP-glucose 100 µM, 1 h, 37 °C, pH 7.5, luminescence (n ≥ 3). Here is the method:
The flow rate was 25 µL/min. […] A representative gel is shown (n = 2). […] GAPDH served as the loading control. A representative Western blot is shown.
UDP-Glo™ Glucosyltransferase assay with UDP-Glucose (Promega Corporation, Madison, WI, USA) was performed according to the manufacturer’s protocol. Briefly, TcdB (200 pM) was incubated in glucosylation buffer (50 mM HEPES, 100 mM KCl, 2 mM MgCl2, 1 mM MnCl2, 100 mg/L BSA, pH 7.5) with various concentrations of the respective inhibitors in a final volume of 40 µL. 5 µM recombinant Rac1 was included in the samples as a substrate. […] Castanospermine (10 mM, Santa Cruz Biotechnology, Dallas, TX, USA) served as control for inhibition of glucosyltransferase activity of TcdB. To stop the reaction, three times 10 µL of each sample were transferred to a white half area 96 well microplate (Greiner Bio-One International GmbH, Kremsmünster, Austria) combined with 10 µL of UDP Detection Reagent and mixed at 1000 rpm for 30 s on a plate shaker (Titramax 1000, Heidolph Instruments GmbH & Co. KG, Schwabach, Germany). Luminescence was recorded after 15–60 min via a Tecan infinite M1000 Pro plate reader (Tecan, Männdorf, Switzerland) with an integration time of 750 ms.

Another data set has as its system bacteria. The settings on record: cited from earlier work. From the text:
The benchmark for treating CDIs is still the use of some specific antibiotics such as vancomycin, metronidazole or fidaxomicin [20]. More and more attention is also being paid to the direct inactivation of the secreted toxins, for example by using anti-toxin-antibodies such as bezlotoxumab or actoxumab. Following the approach of directly inactivating the secreted toxins and based on previous findings of our group and of others, we investigated the effects of human endogenous antimicrobial peptides on the C. difficile toxins TcdA and TcdB. […] The administration of α-def-6 protected human cells from TcdB, but also from the closely related TcdA and the clinically more relevant combination of both TcdA and TcdB. Exemplarily, the protective effect could be confirmed for TcdB in vivo using the zebrafish embryo ...

Another data set deals with TcdB. The settings on record: TcdB 50 ng, α-def-6 6 µM, PBS, 0.5 h, 37 °C (n = 3).
Data set [3] has as its system Rac1. The class given is cell-based, African green monkey. The source holds these as a separate data set.
Data set [4] concerns Rac1. The class given is cell-based, African green monkey. The source holds these as a separate data set.
Data set [5] concerns CaCo-2 cells. This is another data set of the same source.
Another data set relates to CaCo-2 monolayer. The class given is cell-based, human.
The subject of data set [6] is CaCo-2 cells. This is another data set of the same source.
Data set [7] relates to Rac1. The format is cell-based, African green monkey. This is another data set of the same source.

As to `CC[C@H](C)[C@@H]1NC(=O)CNC(=O)[C@H](CCSC)NC(=O)[C@H](C(C)C)NC(=O)[C@H]([C@@H](C)O)NC(=O)[C@@H]2CSSC[C@@H]3NC(=O)[C@H](Cc4c[nH]cn4)NC(=O)[C@@H](NC(=O)[C@@H](NC(=O)[C@H](Cc4ccccc4)NC(=O)[C@H](C)N)[C@@H](C)O)CSSC[C@@H](C(=O)N[C@@H](CC(C)C)C(=O)O)NC(=O)[C@H](CSSC[C@H](NC(=O)[C@H](CO)NC(=O)[C@H](CCCNC(=N)N)NC(=O)[C@H](CCCNC(=N)N)NC3=O)C(=O)N[C@@H](Cc3ccc(O)cc3)C(=O)N[C@@H](CO)C(=O)N[C@@H]([C@@H](C)O)C(=O)N[C@@H](CCC(=O)O)C(=O)N[C@@H](Cc3ccc(O)cc3)C(=O)N[C@@H](CO)C(=O)N[C@@H](Cc3ccc(O)cc3)C(=O)NCC(=O)N[C@@H]([C@@H](C)O)C(=O)N2)NC(=O)[C@H](Cc2ccccc2)NC(=O)[C@H](CCCNC(=N)N)NC(=O)[C@H](Cc2c[nH]cn2)NC(=O)[C@H](CC(N)=O)NC1=O` [α-def-6], the “Rac1 modification by TcdA + TcdB” value in the data set with Rac1 [1] is “diminished the toxin-mediated Rac1-modification”. Moreover, in the data set on Vero cells, the “morphological changes of TcdB-DL488-treated cells” value is given as “no morphological changes” and the “toxin-defensin aggregates in the presence of cells” value is “toxin-defensins-aggregates were also visible”. Moreover, in the data set on CaCo-2 cells [2], the “amount of rounded CaCo-2 cells, TcdA + TcdB” value is “reduced amount of rounded CaCo-2 cells was visible for at least 6 h”. For the same compound, the “inhibition of glucosyltransferase activity of TcdB” value in the data set with TcdB glucosyltransferase is “not able to inhibit glucosyltransferase activity”. In addition, the microbiocidal activity entry with bacteria (ref [27]) is given as “negligible microbiocidal activity”. The “biocidal / antimicrobial activity” value with bacteria (ref [46]) is on record as “surprisingly low antimicrobial activity”. Also, in the data set with TcdB, the “shift of TcdB to pellet fraction” value is on record as “shift of TcdB from the supernatant to the pellet fraction”. Moreover, the “glucosylation of Rac1 by TcdB” value in the data set with Rac1 [3] is recorded as “clearly less Rac1 was glucosylated”. The “glucosylation of Rac1 by TcdA” value with Rac1 [4] is “clearly less Rac1 was glucosylated”. For the same compound, in the data set with CaCo-2 cells [5], the “amount of rounded CaCo-2 cells, TcdB” value is “reduced amount of rounded CaCo-2 cells was visible for at least 6 h”. Also, in the data set with CaCo-2 monolayer, the “TEER, TcdA + TcdB” value is reported as “clear delay in TEER-reduction”. In the data set on CaCo-2 cells [6], the “amount of rounded CaCo-2 cells, TcdA” value is recorded as “reduced amount of rounded CaCo-2 cells was visible for at least 6 h”. Besides, in the data set with Rac1 [7], the “glucosylation of Rac1 in intact cells” value is recorded as “less Rac1 was glucosylated”.
